Assay results published in patent US8513229B2, “4-Azetidinyl-1-phenyl-cyclohexane antagonists of CCR2” (Janssen Pharmaceutica NV, priority 2009, dated 2013).

Molecular target: T1, CCR2 (Homo sapiens, UniProt P41597)
T1 construct: host or cells: THP-1 human monocytic cells
T1 sequence (P41597 1-360 isoform P41597-2): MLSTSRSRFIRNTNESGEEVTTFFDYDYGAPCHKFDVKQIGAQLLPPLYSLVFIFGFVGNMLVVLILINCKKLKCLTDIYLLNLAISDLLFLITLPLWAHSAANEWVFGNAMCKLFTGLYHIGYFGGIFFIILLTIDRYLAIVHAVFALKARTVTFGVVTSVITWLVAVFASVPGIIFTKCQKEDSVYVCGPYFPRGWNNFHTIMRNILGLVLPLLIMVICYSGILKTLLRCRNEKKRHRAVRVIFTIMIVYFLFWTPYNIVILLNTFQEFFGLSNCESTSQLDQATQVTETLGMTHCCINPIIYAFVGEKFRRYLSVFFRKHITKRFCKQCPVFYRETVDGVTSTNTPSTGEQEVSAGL
Assay: MCP-1 Receptor Binding Assay in THP-1 Cells
Details: 0.5 nM 125I labeled MCP-1, 2 hours at 30° C., read-out: Inhibition of MCP-1 Binding IC50 CCR2 Binding
Method: MCP-1 Receptor Binding Assay in THP-1 Cells
Human monocytic cell line THP-1 cells were obtained from American Type Culture Collection (Manassas, Va., USA). […] The cell density was maintained […].
1 μM cold MCP-1 was used for nonspecific binding.

Row | SMILES | IC50 [nM]
1 | O=C(CNC(=O)c1cccc(C(F)(F)F)c1)NC1CN(C2CCC(c3ccc4c(c3)OCO4)CC2)C1 (single isomer, unassigned) [Example 1a, N-{[1-(4-Benzo[1,3]dioxol-5-yl-cyclohexyl)-azetidin-3-ylcarbamoyl]-methyl}-3-trifluoromethyl-benzamide] | 1.2
2 | Cn1cnc2ccc(C3(O)CCC(N4CC(NC(=O)CNC(=O)c5cccc(C(F)(F)F)c5)C4)CC3)cc21 (stereo not shown) [Example 64, N-({1-[4-Hydroxy-4-(3-methyl-3H-benzoimidazol-5-yl)-cyclohexyl]-azetidin-3-ylcarbamoyl}-methyl)-3-trifluoromethyl-benzamide] | 110
3 | O=C(CNC(=O)c1ccc([N+](=O)[O-])c(C(F)(F)F)c1)NC1CN(C2CCC(c3ccccc3)CC2)C1 (stereo not shown) [Example 73, 4-Nitro-N-{[1-(4-phenyl-cyclohexyl)-azetidin-3-ylcarbamoyl]-methyl}-3-trifluoromethyl-benzamide] | 490
4 | CS(=O)(=O)c1ccc(C2CCC(N3CC(NC(=O)CNC(=O)c4cccc(C(F)(F)F)c4)C3)CC2)cc1 (stereo not shown) [Example 29, N-({1-[4-(4-Methanesulfonyl-phenyl)-cyclohexyl]-azetidin-3-ylcarbamoyl}-methyl)-3-trifluoromethyl-benzamide] | 280
5 | O=C(CNC(=O)c1cccc(C(F)(F)F)c1)NC1CN(C2CCC(c3ccc(-c4nn[nH]n4)cc3)CC2)C1 (stereo not shown) [Example 28, N-[(1-{4-[4-(2H-Tetrazol-5-yl)-phenyl]-cyclohexyl}-azetidin-3-ylcarbamoyl)-methyl]-3-trifluoromethyl-benzamide] | 200
6 | CS(=O)(=O)Nc1ccc(C2CCC(N3CC(NC(=O)CNC(=O)c4cccc(C(F)(F)F)c4)C3)CC2)cc1 (stereo not shown) [Example 16, N-({1-[4-(4-Methanesulfonylamino-phenyl)-cyclohexyl]-azetidin-3-ylcarbamoyl}-methyl)-3-trifluoromethyl-benzamide] | 100
7 | N#Cc1ccc(C2CCC(N3CC(NC(=O)CNC(=O)c4cccc(C(F)(F)F)c4)C3)CC2)cc1 (stereo not shown) [Example 27, N-({1-[4-(4-Cyano-phenyl)-cyclohexyl]-azetidin-3-ylcarbamoyl}-methyl)-3-trifluoromethyl-benzamide] | 86
8 | CN(C)CCOc1ccc(C2CCC(N3CC(NC(=O)CNC(=O)c4cccc(C(F)(F)F)c4)C3)CC2)cc1 (stereo not shown) [Example 41, N-[(1-{4-[4-(2-Dimethylamino-ethoxy)-phenyl]-cyclohexyl}-azetidin-3-ylcarbamoyl)-methyl]-3-trifluoromethyl-benzamide] | 160
9 | O=C(CNC(=O)c1cccc(C(F)(F)F)c1)NC1CN(C2CCC(c3ccc(Cc4nn[nH]n4)cc3)CC2)C1 (stereo not shown) [Example 23, N-[(1-{4-[4-(2H-Tetrazol-5-ylmethyl)-phenyl]-cyclohexyl}-azetidin-3-ylcarbamoyl)-methyl]-3-trifluoromethyl-benzamide] | 260
10 | CC(C)(C)NC(=O)Nc1cc(C(=O)NCC(=O)NC2CN(C3CCC(c4ccccc4)CC3)C2)cc(C(F)(F)F)c1 (stereo not shown) [Example 82, 3-(3-tert-Butyl-ureido)-N-{[1-(4-phenyl-cyclohexyl)-azetidin-3-ylcarbamoyl]-methyl}-5-trifluoromethyl-benzamide] | 50
11 | CCc1cccc(C2(O)CCC(N3CC(NC(=O)CNC(=O)c4cccc(C(F)(F)F)c4)C3)CC2)c1 (stereo not shown) [Example 52, N-({1-[4-(3-Ethyl-phenyl)-4-hydroxy-cyclohexyl]-azetidin-3-ylcarbamoyl}-methyl)-3-trifluoromethyl-benzamide] | 160
12 | CC(C)(C)NC(=O)Nc1ccc(C2CCC(N3CC(NC(=O)CNC(=O)c4cccc(C(F)(F)F)c4)C3)CC2)cc1 (stereo not shown) [Example 18, N-[(1-{4-[4-(3-tert-Butyl-ureido)-phenyl]-cyclohexyl}-azetidin-3-ylcarbamoyl)-methyl]-3-trifluoromethyl-benzamide] | > 25000
13 | O=C(CNC(=O)c1ccc(NCCO)c(C(F)(F)F)c1)NC1CN(C2CCC(c3ccccc3)CC2)C1 (stereo not shown) [Example 72, 4-(2-Hydroxy-ethylamino)-N-{[1-(4-phenyl-cyclohexyl)-azetidin-3-ylcarbamoyl]-methyl}-3-trifluoromethyl-benzamide] | 400
14 | O=C(CNC(=O)c1cccc(C(F)(F)F)c1)NC1CN(C2CCC(O)(c3cccc(-c4nnn[nH]4)c3)CC2)C1 (stereo not shown) [Example 49, N-[(1-{4-Hydroxy-4-[3-(1H-tetrazol-5-yl)-phenyl]-cyclohexyl}-azetidin-3-ylcarbamoyl)-methyl]-3-trifluoromethyl-benzamide] | 810
15 | CS(=O)(=O)N(c1cc(C(=O)NCC(=O)NC2CN(C3CCC(c4ccccc4)CC3)C2)cc(C(F)(F)F)c1)S(C)(=O)=O (stereo not shown) [Example 80, 3-Bis methanesulfonyl-N-{[1-(4-phenyl-cyclohexyl)-azetidin-3-ylcarbamoyl]-methyl}-5-trifluoromethyl-benzamide] | 420
16 | CS(=O)(=O)Nc1cccc(C2(O)CCC(N3CC(NC(=O)CNC(=O)c4cccc(C(F)(F)F)c4)C3)CC2)c1 (stereo not shown) [Example 61, N-({1-[4-Hydroxy-4-(3-methanesulfonylamino-phenyl)-cyclohexyl]-azetidin-3-ylcarbamoyl}-methyl)-3-trifluoromethyl-benzamide] | 130
17 | Nc1ccc(C(=O)NCC(=O)NC2CN(C3CCC(c4ccccc4)CC3)C2)cc1C(F)(F)F (stereo not shown) [Example 74, 4-Amino-N-{[1-(4-phenyl-cyclohexyl)-azetidin-3-ylcarbamoyl]-methyl}-3-trifluoromethyl-benzamide] | 46

The next lines start with the values.

Row | IC50 [nM] | SMILES
18 | 200 | O=C(CNC(=O)c1cccc(C(F)(F)F)c1)NC1CN(C2CCC(c3ccc4sc(=O)[nH]c4c3)CC2)C1 (single isomer, unassigned) [Example 6a, N-({1-[4-(2-Oxo-2,3-dihydro-benzothiazol-5-yl)-cyclohexyl]-azetidin-3-ylcarbamoyl}-methyl)-3-trifluoromethyl-benzamide]
19 | 220 | O=C(CNC(=O)c1cc(F)cc(C(F)(F)F)c1)NC1CN(C2CCC(c3ccccc3)CC2)C1 (single isomer, unassigned) [Example 76a, 3-Fluoro-N-{[1-(4-phenyl-cyclohexyl)-azetidin-3-ylcarbamoyl]-methyl}-5-trifluoromethyl-benzamide]
20 | 413 | N#Cc1cccc(C2(O)CCC(N3CC(NC(=O)CNC(=O)c4cccc(C(F)(F)F)c4)C3)CC2)c1 (single isomer, unassigned) [Example 48a, N-({1-[4-(3-Cyano-phenyl)-4-hydroxy-cyclohexyl]-azetidin-3-ylcarbamoyl}-methyl)-3-trifluoromethyl-benzamide]
21 | 62 | CN(C)c1ccc(C2(O)CCC(N3CC(NC(=O)CNC(=O)c4cccc(C(F)(F)F)c4)C3)CC2)cc1 (single isomer, unassigned) [Example 54a, N-({1-[4-(4-Dimethylamino-phenyl)-4-hydroxy-cyclohexyl]-azetidin-3-ylcarbamoyl}-methyl)-3-trifluoromethyl-benzamide]
22 | 135 | CCOC(=O)c1cccc(C2CCC(N3CC(NC(=O)CNC(=O)c4cccc(C(F)(F)F)c4)C3)CC2)c1 (single isomer, unassigned) [Example 11a, 3-(4-{3-[2-(3-Trifluoromethyl-benzoylamino)-acetylamino]-azetidin-1-yl}-cyclohexyl)-benzoic acid ethyl ester]
23 | 310 | O=C(CNC(=O)c1cccc(C(F)(F)F)c1)NC1CN(C2CCC(O)(c3ccc4nc[nH]c4c3)CC2)C1 (single isomer, unassigned) [Example 34a, N-({1-[4-(3H-Benzoimidazol-5-yl)-4-hydroxy-cyclohexyl]-azetidin-3-ylcarbamoyl}-methyl)-3-trifluoromethyl-benzamide]
24 | 63 | O=C(CNC(=O)c1cccc(C(F)(F)F)c1)NC1CN(C2CCC(O)(c3ccc4c(c3)OCCO4)CC2)C1 (single isomer, unassigned) [Example 32a, N-({1-[4-(2,3-Dihydro-benzo[1,4]dioxin-6-yl)-4-hydroxy-cyclohexyl]-azetidin-3-ylcarbamoyl}-methyl)-3-trifluoromethyl-benzamide]
25 | 27 | O=C(CNC(=O)c1cccc(C(F)(F)F)c1)NC1CN(C2CCC(c3ccc4nc[nH]c4c3)CC2)C1 (single isomer, unassigned) [Example 20a, N-({1-[4-(3H-Benzoimidazol-5-yl)-cyclohexyl]-azetidin-3-ylcarbamoyl}-methyl)-3-trifluoromethyl-benzamide]
26 | 228 | C#Cc1cccc(C2(O)CCC(N3CC(NC(=O)CNC(=O)c4cccc(C(F)(F)F)c4)C3)CC2)c1 (single isomer, unassigned) [Example 51a, N-({1-[4-(3-Ethynyl-phenyl)-4-hydroxy-cyclohexyl]-azetidin-3-ylcarbamoyl}-methyl)-3-trifluoromethyl-benzamide]
27 | 69 | COc1cccc(C2(O)CCC(N3CC(NC(=O)CNC(=O)c4cccc(C(F)(F)F)c4)C3)CC2)c1 (single isomer, unassigned) [Example 37a, N-({1-[4-Hydroxy-4-(3-methoxy-phenyl)-cyclohexyl]-azetidin-3-ylcarbamoyl}-methyl)-3-trifluoromethyl-benzamide]
28 | 440 | CS(=O)(=O)c1cccc(C2CCC(N3CC(NC(=O)CNC(=O)c4cccc(C(F)(F)F)c4)C3)CC2)c1 (single isomer, unassigned) [Example 14a, N-({1-[4-(3-Methanesulfonyl-phenyl)-cyclohexyl]-azetidin-3-ylcarbamoyl}-methyl)-3-trifluoromethyl-benzamide]
